In patent US9321776B2, “Isochromene derivatives as phoshoinositide 3-kinases inhibitors” (CHIESI FARMACEUTICI S.p.A., priority 2013, dated 2016):
Counter-ions that a name gives are not always drawn.

Experiments:
Assay in all cases: PI3K enzyme inhibitory activity in the cell free assay (ADP-Glo Kinase Assay)
Type in all cases: biochemical
PI3Kγ = target: T1, PI3Kγ (Homo sapiens, UniProt P48736); conditions: human recombinant PI3Kγ, ATP 30 μM; read-out: PI3K gamma inhibition
T1 construct: purchased Millipore Ltd (Billerica, Mass.)
T1 sequence (P48736 whole entry): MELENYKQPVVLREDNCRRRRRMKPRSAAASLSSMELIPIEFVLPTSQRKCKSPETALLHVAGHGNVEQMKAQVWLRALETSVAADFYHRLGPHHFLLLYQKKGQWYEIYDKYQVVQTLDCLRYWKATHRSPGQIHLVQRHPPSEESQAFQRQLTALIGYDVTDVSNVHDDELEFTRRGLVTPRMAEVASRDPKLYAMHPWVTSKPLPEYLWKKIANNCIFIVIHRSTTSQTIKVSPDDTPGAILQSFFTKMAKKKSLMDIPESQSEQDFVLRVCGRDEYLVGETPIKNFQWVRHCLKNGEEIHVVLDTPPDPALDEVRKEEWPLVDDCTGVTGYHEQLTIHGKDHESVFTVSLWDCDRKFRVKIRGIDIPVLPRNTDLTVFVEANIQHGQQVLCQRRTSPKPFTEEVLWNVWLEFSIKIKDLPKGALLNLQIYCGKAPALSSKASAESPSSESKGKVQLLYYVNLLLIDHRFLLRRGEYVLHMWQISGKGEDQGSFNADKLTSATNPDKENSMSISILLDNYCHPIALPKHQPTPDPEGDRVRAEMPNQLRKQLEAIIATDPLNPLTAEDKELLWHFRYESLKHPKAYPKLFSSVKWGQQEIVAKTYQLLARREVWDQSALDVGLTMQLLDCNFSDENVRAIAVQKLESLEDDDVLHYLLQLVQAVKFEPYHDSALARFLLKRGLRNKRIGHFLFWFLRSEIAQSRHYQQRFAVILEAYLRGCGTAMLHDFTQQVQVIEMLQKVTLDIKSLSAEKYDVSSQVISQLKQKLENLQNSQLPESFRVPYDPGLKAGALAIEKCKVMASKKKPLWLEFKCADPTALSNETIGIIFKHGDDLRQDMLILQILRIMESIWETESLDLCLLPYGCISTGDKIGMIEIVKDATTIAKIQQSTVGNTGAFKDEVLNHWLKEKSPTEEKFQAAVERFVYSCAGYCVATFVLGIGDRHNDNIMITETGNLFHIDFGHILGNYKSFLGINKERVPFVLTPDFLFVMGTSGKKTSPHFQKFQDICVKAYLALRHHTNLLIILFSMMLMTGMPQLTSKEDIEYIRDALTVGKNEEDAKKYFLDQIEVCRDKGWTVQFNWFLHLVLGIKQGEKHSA

PI3Kα = target: T2, PI3Kα (Homo sapiens, UniProt P42336); conditions: human recombinant PI3Kα, ATP 50 μM; read-out: PI3K alpha inhibition
T2 construct: purchased Millipore Ltd (Billerica, Mass.)
T2 sequence (P42336 whole entry): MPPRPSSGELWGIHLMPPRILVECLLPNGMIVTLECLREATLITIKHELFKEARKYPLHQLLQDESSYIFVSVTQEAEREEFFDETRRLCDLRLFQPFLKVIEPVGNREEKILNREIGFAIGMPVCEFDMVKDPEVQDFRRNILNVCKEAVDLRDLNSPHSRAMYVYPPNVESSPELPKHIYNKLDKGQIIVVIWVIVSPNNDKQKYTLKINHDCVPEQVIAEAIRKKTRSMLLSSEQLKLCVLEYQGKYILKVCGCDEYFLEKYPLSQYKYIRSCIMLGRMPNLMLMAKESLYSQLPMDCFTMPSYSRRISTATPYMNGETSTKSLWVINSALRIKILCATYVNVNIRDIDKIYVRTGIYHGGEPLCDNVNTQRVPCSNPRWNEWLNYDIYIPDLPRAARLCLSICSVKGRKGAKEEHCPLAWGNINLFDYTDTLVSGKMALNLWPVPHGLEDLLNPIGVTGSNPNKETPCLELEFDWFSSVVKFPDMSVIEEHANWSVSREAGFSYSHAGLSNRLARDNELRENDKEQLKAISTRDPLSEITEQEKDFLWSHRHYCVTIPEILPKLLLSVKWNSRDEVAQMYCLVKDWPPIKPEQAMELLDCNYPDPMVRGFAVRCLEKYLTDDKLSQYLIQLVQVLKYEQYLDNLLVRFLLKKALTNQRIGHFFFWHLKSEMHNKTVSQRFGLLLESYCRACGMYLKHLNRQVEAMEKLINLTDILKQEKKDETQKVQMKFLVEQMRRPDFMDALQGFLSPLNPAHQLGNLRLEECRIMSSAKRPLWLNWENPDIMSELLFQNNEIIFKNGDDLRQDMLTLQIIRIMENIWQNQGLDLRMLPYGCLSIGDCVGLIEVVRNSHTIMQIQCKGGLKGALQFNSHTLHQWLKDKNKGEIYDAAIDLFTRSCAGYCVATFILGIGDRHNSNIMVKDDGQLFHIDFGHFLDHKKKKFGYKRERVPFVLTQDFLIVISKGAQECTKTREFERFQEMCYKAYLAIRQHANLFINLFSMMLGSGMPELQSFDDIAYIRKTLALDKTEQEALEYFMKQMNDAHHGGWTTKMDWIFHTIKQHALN

PI3Kδ = target: T3, PI3Kδ (Homo sapiens, UniProt O00329); conditions: human recombinant PI3Kδ, ATP 80 μM; read-out: PI3K delta inhibition
T3 construct: purchased Millipore Ltd (Billerica, Mass.)
T3 sequence (O00329 1-1044): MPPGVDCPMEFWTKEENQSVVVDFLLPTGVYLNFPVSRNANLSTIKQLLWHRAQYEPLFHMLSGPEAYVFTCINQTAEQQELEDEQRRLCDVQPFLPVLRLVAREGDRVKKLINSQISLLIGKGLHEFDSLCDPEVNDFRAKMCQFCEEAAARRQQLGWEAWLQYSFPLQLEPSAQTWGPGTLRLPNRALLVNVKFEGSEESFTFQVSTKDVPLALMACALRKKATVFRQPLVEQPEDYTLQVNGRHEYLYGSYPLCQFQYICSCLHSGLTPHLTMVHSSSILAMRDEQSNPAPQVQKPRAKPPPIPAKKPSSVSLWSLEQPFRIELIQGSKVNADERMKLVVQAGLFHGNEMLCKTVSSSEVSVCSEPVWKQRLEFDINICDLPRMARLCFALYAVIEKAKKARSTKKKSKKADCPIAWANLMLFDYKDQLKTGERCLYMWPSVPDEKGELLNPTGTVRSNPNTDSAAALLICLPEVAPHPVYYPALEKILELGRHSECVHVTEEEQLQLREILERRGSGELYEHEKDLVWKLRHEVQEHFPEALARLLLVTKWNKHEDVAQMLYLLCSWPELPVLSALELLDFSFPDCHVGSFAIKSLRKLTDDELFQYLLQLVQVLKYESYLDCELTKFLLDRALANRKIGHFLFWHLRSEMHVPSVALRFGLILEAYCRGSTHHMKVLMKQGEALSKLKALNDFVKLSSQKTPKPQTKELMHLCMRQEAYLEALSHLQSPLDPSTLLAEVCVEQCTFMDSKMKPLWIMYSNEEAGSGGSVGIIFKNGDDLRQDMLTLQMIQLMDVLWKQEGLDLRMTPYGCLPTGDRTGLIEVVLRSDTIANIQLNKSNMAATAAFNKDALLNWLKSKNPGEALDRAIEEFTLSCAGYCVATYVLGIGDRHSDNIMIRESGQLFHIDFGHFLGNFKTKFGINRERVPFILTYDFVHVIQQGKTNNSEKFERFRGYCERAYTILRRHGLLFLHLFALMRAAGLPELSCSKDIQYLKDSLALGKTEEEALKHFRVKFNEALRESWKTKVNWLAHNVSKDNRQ

PI3Kβ = target: T4, PI3Kβ (Homo sapiens, UniProt P42338); conditions: human recombinant PI3Kβ, ATP 100 μM; read-out: PI3K beta inhibition
T4 construct: purchased Millipore Ltd (Billerica, Mass.)
T4 sequence (P42338 whole entry): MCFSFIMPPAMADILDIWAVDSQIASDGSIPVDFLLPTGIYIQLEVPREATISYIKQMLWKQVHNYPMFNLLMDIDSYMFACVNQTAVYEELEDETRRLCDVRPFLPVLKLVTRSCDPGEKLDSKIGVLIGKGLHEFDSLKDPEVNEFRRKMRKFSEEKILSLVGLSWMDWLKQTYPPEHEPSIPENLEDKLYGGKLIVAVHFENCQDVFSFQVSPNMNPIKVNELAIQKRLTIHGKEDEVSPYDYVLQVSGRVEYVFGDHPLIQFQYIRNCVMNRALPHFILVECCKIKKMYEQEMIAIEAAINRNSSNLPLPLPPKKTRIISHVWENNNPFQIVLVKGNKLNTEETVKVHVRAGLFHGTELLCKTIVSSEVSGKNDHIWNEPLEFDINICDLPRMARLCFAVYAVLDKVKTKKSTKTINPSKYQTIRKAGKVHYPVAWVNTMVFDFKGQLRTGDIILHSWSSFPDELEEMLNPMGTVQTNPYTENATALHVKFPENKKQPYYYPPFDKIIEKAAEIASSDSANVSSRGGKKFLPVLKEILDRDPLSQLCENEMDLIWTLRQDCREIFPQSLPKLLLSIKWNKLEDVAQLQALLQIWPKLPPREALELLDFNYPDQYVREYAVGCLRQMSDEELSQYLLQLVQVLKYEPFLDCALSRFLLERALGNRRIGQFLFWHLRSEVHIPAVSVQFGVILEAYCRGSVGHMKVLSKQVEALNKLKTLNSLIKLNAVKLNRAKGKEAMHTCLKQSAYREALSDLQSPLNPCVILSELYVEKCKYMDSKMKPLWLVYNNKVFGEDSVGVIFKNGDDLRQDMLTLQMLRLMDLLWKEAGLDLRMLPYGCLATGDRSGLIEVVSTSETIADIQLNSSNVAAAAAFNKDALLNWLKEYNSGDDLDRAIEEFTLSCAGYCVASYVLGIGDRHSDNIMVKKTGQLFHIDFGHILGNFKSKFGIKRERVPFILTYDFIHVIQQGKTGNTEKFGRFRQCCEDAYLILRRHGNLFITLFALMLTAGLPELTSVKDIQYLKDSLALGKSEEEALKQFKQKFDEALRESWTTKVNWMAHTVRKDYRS

Row | Structure (SMILES) | IC50 (PI3Kγ) [nM] | IC50 (PI3Kα) [nM] | IC50 (PI3Kδ) [nM] | IC50 (PI3Kβ) [nM]
1 | CC(c1oc(=O)c2ccccc2c1-c1ccccn1)n1nc(-c2cc(O)cc(F)c2)c2c(N)ncnc21 (stereo not drawn) [Example 170, 3-(1-(4-amino-3-(3-fluoro-5-hydroxyphenyl)-1H-pyrazolo[3,4-d]pyrimidin-1-yl)ethyl)-4-(pyridin-2-yl)-1H-isochromen-1-one hydrochloride] | 10 to 1000 | 10 to 1000 | < 10 | 10 to 1000
2 | Cc1cccc(-c2c(C(C)n3nc(-c4cc(O)cc(F)c4)c4c(N)ncnc43)oc(=O)c3ccccc23)c1 (stereo not drawn) [Example 41, 3-(1-(4-Amino-3-(3-fluoro-5-hydroxyphenyl)-1H-pyrazolo[3,4-d]pyrimidin-1-yl)ethyl)-4-m-tolyl-1H-isochromen-1-one] | 10 to 1000 | 10 to 1000 | < 10 | 10 to 1000
3 | CC(c1oc(=O)c2ccccc2c1C1=CCN(CC2CC2)CC1)n1nc(-c2cc(O)cc(F)c2)c2c(N)ncnc21 (stereo not drawn) [Example 66, 3-(1-(4-amino-3-(3-fluoro-5-hydroxyphenyl)-1H-pyrazolo[3,4-d]pyrimidin-1-yl)ethyl)-4-(1-(cyclopropylmethyl)-1,2,3,6-tetrahydropyridin-4-yl)-1H-isochromen-1-one hydrochloride] | 10 to 1000 | 10 to 1000 | < 10 | 10 to 1000
4 | CC(c1oc(=O)c2ccccc2c1C1=CCN(C(=O)C2CCN(C)CC2)CC1)n1nc(-c2cc(O)cc(F)c2)c2c(N)ncnc21 (stereo not drawn) [Example 148, 3-(1-(4-amino-3-(3-fluoro-5-hydroxyphenyl)-1H-pyrazolo[3,4-d]pyrimidin-1-yl)ethyl)-4-(1-(1-methylpiperidine-4-carbonyl)-1,2,3,6-tetrahydropyridin-4-yl)-1H-isochromen-1-one formate] | 10 to 1000 | > 1000 | < 10 | 10 to 1000
5 | CC(c1oc(=O)c2ccccc2c1C1=CCN(C(=O)C2CN(C)C2)CC1)n1nc(-c2cc(O)cc(F)c2)c2c(N)ncnc21 (stereo not drawn) [Example 151, 3-(1-(4-amino-3-(3-fluoro-5-hydroxyphenyl)-1H-pyrazolo[3,4-d]pyrimidin-1-yl)ethyl)-4-(1-(1-methylazetidine-3-carbonyl)-1,2,3,6-tetrahydropyridin-4-yl)-1H-isochromen-1-one formate] | 10 to 1000 | > 1000 | 10 to 1000 | 10 to 1000
6 | CC(Nc1ncnc2[nH]cnc12)c1oc(=O)c2ccccc2c1C1=CCNCC1 (stereo not drawn) [Example 23, 3-(1-(9H-Purin-6-ylamino)ethyl)-4-(1,2,3,6-tetrahydropyridin-4-yl)-1H-isochromen-1-one hydrochloride] | > 1000 | > 1000 | < 10 | 10 to 1000
7 | CC(NC(=O)c1c(N)nn2cccnc12)c1oc(=O)c2ccccc2c1-c1ccccc1 (stereo not drawn) [Example 110, 2-amino-N-(1-(1-oxo-4-phenyl-1H-isochromen-3-yl)ethyl)pyrazolo[1,5-a]pyrimidine-3-carboxamide] | 10 to 1000 | 10 to 1000 | 10 to 1000 | 10 to 1000
8 | CC(c1oc(=O)c2ccccc2c1CN1CCOCC1)n1nc(-c2cc(O)cc(F)c2)c2c(N)ncnc21 (stereo not drawn) [Example 130, 3-(1-(4-amino-3-(3-fluoro-5-hydroxyphenyl)-1H-pyrazolo[3,4-d]pyrimidin-1-yl)ethyl)-4-(morpholinomethyl)-1H-isochromen-1-one] | 10 to 1000 | 10 to 1000 | < 10 | 10 to 1000
9 | CC(c1oc(=O)c2ccccc2c1-c1ccc(CCCN(C)C)cc1)n1nc(-c2cc(O)cc(F)c2)c2c(N)ncnc21 (single isomer, unassigned) [Example 138b, 3-(1-(4-amino-3-(3-fluoro-5-hydroxyphenyl)-1H-pyrazolo[3,4-d]pyrimidin-1-yl)ethyl)-4-(4-(3-(dimethylamino)propyl)phenyl)-1H-isochromen-1-one single enantiomers] | 10 to 1000 | > 1000 | < 10 | > 1000
